Earlier results, collected in US6462226B1, “Process for the preparation of 4,5-diamino shikimic acid derivatives” (priority 1999, dated 2002).

Tested on: viral neuraminidase
Details: J. C. Rohloff et al., J.Org.Chem. 63, 1998, 4545-4550; WO 98/07685

CCOC(=O)C1=C[C@@H](OC(CC)CC)[C@H](NC(C)=O)[C@@H](N)C1 [Example 1, Ethyl (3R, 4R, 5S)-4-acetamido-5-amino-3-(1-ethylpropoxy)-1-cyclohexene-1-carboxylate]
inhibition of viral neuraminidase: potent inhibitors
